Experimental data taken from patent US9845319B2, “Amide substituted thiazoles as modulators of RORyt” (Janssen Pharmaceutica NV, priority 2014, dated 2017).

Assays:
full-length human RORγt [1] = molecular target: T1, full-length human RORγt (Homo sapiens, UniProt P51449); assay: RORγt (full-length human) Reporter Assay, Conditions B or C; type: cell-based; conditions: for IC50: HEK293T cells, GAL4-DBD-RORγt, luciferase, read-out: RORγt (FL) Reporter Assay B or C, IC50; for inhibition at 6 µM: read-out: RORγt (FL) Reporter Assay B or C, % inhibition @ 6 μM, 6 μM compound
T1 construct: expressed in transfected cells; host or cells: HEK293T, transiently transfected with pCMV-BD-ROR
T1 sequence (P51449 1-497 isoform P51449-2): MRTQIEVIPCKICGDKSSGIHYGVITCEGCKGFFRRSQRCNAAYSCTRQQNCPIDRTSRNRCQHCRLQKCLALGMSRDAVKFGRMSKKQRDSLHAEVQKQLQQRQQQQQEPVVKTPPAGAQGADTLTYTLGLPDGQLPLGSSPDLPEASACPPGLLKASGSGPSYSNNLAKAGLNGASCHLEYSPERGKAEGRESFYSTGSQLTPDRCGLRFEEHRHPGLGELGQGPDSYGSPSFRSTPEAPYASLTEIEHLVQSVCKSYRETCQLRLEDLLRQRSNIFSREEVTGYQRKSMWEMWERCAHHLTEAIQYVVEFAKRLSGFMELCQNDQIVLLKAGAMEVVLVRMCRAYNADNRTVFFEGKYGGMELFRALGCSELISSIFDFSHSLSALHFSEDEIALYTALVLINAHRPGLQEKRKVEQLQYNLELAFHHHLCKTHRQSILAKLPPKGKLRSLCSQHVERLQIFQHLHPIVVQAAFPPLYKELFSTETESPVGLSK
Experimental: HEK293T cells were plated at 35,000 per well in 96-well plate in medium of DMEM with 10% FBS. […] After overnight (16 to 20 hours) incubation, media were removed and cells were lysed with 50 μL Glo Lysis Buffer (Promega) for 10-15 minutes followed by 10 minute incubation with 50 uL Dual Glo reagent (Promega) at room temperature. Firefly luciferase luminescence was measured using a BMG Pherastar plate reader. To each well, 50 uL Stop and Glo reagent was added and incubated for 10 minutes at room temperature. Renilla luminescence was measured using a BMG Pherastar plate reader. To calculate the effect of compounds on RORγt activity, firefly values were normalized against values of DMSO only and values of reference compound at saturating concentration, then further normalized against Renilla signals. IC50s were generated by plotting final Renilla normalized data against compound concentration and percent inhibition was calculated against DMSO control. […] HEK293T cells were plated at 8750 cells per well in 384-well plate in medium of DMEM with 10% FBS. […] After overnight (16 to 20 hours) incubation, media were removed and cells were lysed with 20 μL Glo Lysis Buffer (Promega) for 10-15 minutes followed by 10 minute incubation with 20 uL Dual Glo reagent (Promega) at room temperature. Firefly luciferase luminescence was measured using a BMG Pherastar plate reader. To each well, 20 uL Stop and Glo reagent was added and incubated for 10 minutes at room temperature. Renilla luminescence was measured using a BMG Pherastar plate reader. To calculate the effect of compounds on RORγt activity, firefly values were normalized against values of DMSO only and values of reference compound at saturating concentration, then further normalized against Renilla signals. IC50s were generated by plotting final Renilla normalized data against compound concentration and percent inhibition was calculated against DMSO control.

[2] = test system: IL-17 production by CD4 T cells; assay: Human Th17 Assay; type: cell-based; conditions: 72 h; IL-17 in supernatant, 3 days, human CD4+ T cells; read-out: Human Th17 Assay, IC50
Experimental: The human Th17 assay tests the effect of RORγt modulatory compounds on IL-17 production by CD4 T cells under conditions which favor Th17 differentiation. Total CD4^+ T cells were isolated from the peripheral blood mononuclear cells (PBMC) of healthy donors using a CD4^+ T cell isolation kit II, following the manufacturer's instructions (Miltenyi Biotec). […] 50 μL of compound at titrated concentrations in DMSO were added into each well at final DMSO concentration at 0.2%. Cells were incubated for 1 hour, then 50 μL of Th17 cell differentiation medium was added to each well. The final concentrations of antibodies and cytokines (R&D Systems) in differentiation medium were: 3×10^6/mL anti-CD3/CD28 beads (prepared using human T cell activation/expansion kit, Miltenyi Biotec), 10 μg/mL anti-IL4, 10 μg/mL anti-IFNγ, 10 ng/mL IL1β, 10 ng/mL IL23, 50 ng/mL IL6, 3 ng/mL TGFβ and 20 U/mL IL2. Cells were cultured at 37° C. and 5% CO2 for 3 days. Supernatants were collected and the accumulated IL-17 in culture was measured by using MULTI-SPOT® Cytokine Plate following manufacture's instruction (Meso Scale Discovery). The plate was read using Sector Imager 6000, and IL-17 concentration was extrapolated from the standard curve. The IC50s were determined by GraphPad.

[3] = molecular target: T2, human RORγt ligand binding domain (RORγt LBD) (Homo sapiens, UniProt P51449); assay: RORγt ThermoFluor assay; conditions: estimated from thermal shift concentration response
T2 construct: His-tag (N); TurboTEV protease cleavage site (ENLYFQG) (N); made in house; host or cells: E. coli (pHIS1, a modified pET expression vector)
T2 sequence (P51449 with tags, fused parts or gaps): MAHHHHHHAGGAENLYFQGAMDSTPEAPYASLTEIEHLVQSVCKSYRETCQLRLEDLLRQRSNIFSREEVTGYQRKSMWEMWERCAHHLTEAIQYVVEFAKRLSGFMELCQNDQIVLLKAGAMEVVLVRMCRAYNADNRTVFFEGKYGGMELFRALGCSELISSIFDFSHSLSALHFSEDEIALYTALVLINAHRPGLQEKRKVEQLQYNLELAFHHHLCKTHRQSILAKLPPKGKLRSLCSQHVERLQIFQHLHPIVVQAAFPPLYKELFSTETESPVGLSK
Summary of the method: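 Thermal shift of RORγt LBD (0.065 mg/mL) with 60 μM 1,8-ANS in 100 mM Hepes pH 7.0, NaCl, GSH, 0.002% Tween-20, heated at 1° C/min. ANS fluorescence tracked versus temperature; ΔTm relative to DMSO wells. Compounds serially diluted 1:2 from 10 mM DMSO stock.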

full-length human RORγt [4] = molecular target: T1, full-length human RORγt; assay: RORγt (full-length human) Reporter Assay, Conditions A; type: cell-based; conditions: for IC50: HEK293T cells, GAL4-DBD-RORγt, luciferase, read-out: RORγt (FL) Reporter Assay A, IC50; for inhibition at 2 µM: read-out: RORγt (FL) Reporter Assay A, % inhibition (* at 2 μM), 2 μM compound concentration (footnote *); for inhibition at 6 µM: read-out: RORγt (FL) Reporter Assay A, % inhibition @ 6 μM, 6 μM compound
Summary of the method: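 Dual-luciferase readout after overnight (16 to 20 hours) treatment: firefly values scaled between DMSO-only and saturating reference-compound controls, then corrected by Renilla. Percent inhibition calculated against DMSO control, with IC50 derived from concentration-response plots.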

| Compound | IC50 (full-length human RORγt [1]) [nM] | inhibition at 2 µM (full-length human RORγt [1]; read-out: RORγt (FL) Reporter Assay B or C, % inhibition (* at 2 μM), 2 μM compound concentration (footnote *)) [%] | IC50 [2] [nM] | Kd [3] [nM] | IC50 (full-length human RORγt [4]) [nM] | inhibition at 2 µM (full-length human RORγt [4]) [%] | inhibition at 6 µM (full-length human RORγt [4]) [%] | inhibition at 6 µM (full-length human RORγt [1]) [%] |
| --- | --- | --- | --- | --- | --- | --- | --- | --- |
| C[C@H]1CCCN1C(=O)c1nc(-c2nnc(C(C)(C)O)o2)sc1-c1ccc(C(O)(C(F)(F)F)C(F)(F)F)cc1C(F)(F)F [Example 7/1, (S)-(5-(4-(1,1,1,3,3,3-hexafluoro-2-hydroxypropan-2-yl)-2-(trifluoromethyl)phenyl)-2-(5-(2-hydroxypropan-2-yl)-1,3,4-oxadiazol-2-yl)thiazol-4-yl)(2-methylpyrrolidin-1-yl)methanone] | 6 | 108 | 64 | 1 | 38 | 102 |  |  |
| CC[C@H](NS(=O)(=O)c1ccc(-c2sc(-c3noc(CC(C)(C)C(=O)O)n3)nc2C(=O)N2CCC(F)(F)CC2)c(OC(F)(F)F)c1)C(F)(F)F [Example 10/2, (S)-3-(3-(4-(4,4-Difluoropiperidine-1-carbonyl)-5-(4-(N-(1,1,1-trifluorobutan-2-yl)sulfamoyl)-2-(trifluoromethoxy)phenyl)thiazol-2-yl)-1,2,4-oxadiazol-5-yl)-2,2-dimethylpropanoic acid] |  |  | 76 | 0.04 | 57 |  | 106 |  |
| C[C@H](NS(=O)(=O)c1ccc(-c2sc(-c3cc(CC(C)(C)C(=O)O)on3)nc2C(=O)N2CCC(F)(F)CC2)c(C(F)F)c1F)C(F)(F)F [Example 18, (S)-3-(3-(5-(2-(Difluoromethyl)-3-fluoro-4-(N-(1,1,1-trifluoropropan-2-yl)sulfamoyl)phenyl)-4-(4,4-difluoropiperidine-1-carbonyl)thiazol-2-yl)isoxazol-5-yl)-2,2-dimethylpropanoic acid] |  |  | 410 | 3.7 | 350 |  | 103 |  |
| C[C@H](NS(=O)(=O)c1ccc(-c2sc(-c3cc(CC(C)(C)C(=O)O)on3)nc2C(=O)N2CC(F)(F)C[C@@H]2C)c(C(F)F)c1F)C(F)(F)F [Example 18/1, 3-(3-(4-((S)-4,4-Difluoro-2-methylpyrrolidine-1-carbonyl)-5-(2-(difluoromethyl)-3-fluoro-4-(N—((S)-1,1,1-trifluoropropan-2-yl)sulfamoyl)phenyl)thiazol-2-yl)isoxazol-5-yl)-2,2-dimethylpropanoic acid] |  |  | 470 | 5.6 | 170 |  | 104 |  |
| C[C@H]1CCCN1C(=O)c1nc(-c2nnc(C(C)(C)O)n2C)sc1-c1ccc(C(O)(C(F)(F)F)C(F)(F)F)cc1C(F)(F)F [Example 22, (S)-(5-(4-(1,1,1,3,3,3-Hexafluoro-2-hydroxypropan-2-yl)-2-(trifluoromethyl)phenyl)-2-(5-(2-hydroxypropan-2-yl)-4-methyl-4H-1,2,4-triazol-3-yl)thiazol-4-yl)(2-methylpyrrolidin-1-yl)methanone] | 83 |  |  | 5 | 110 | 99 |  | 87 |

The next lines start with the values.

| IC50 (full-length human RORγt [1]) [nM] | inhibition at 2 µM (full-length human RORγt [1]; read-out: RORγt (FL) Reporter Assay B or C, % inhibition (* at 2 μM), 2 μM compound concentration (footnote *)) [%] | IC50 [2] [nM] | Kd [3] [nM] | IC50 (full-length human RORγt [4]) [nM] | inhibition at 2 µM (full-length human RORγt [4]) [%] | inhibition at 6 µM (full-length human RORγt [4]) [%] | inhibition at 6 µM (full-length human RORγt [1]) [%] | Compound |
| --- | --- | --- | --- | --- | --- | --- | --- | --- |
|  |  | 6000 | 0.64 | 1900 |  | 59 |  | CC[C@H](NS(=O)(=O)c1ccc(-c2sc(-c3nnn[nH]3)nc2C(=O)N2CCCC[C@@H]2C)c(Cl)c1Cl)C(F)(F)F [Example 15, 2,3-Dichloro-4-(4-((S)-2-methylpiperidine-1-carbonyl)-2-(1H-tetrazol-5-yl)thiazol-5-yl)-N—((S)-1,1,1-trifluorobutan-2-yl)benzenesulfonamide] |
|  |  | 9 | 0.013 | 8 | 99 |  |  | CC[C@H](NS(=O)(=O)c1ccc(-c2sc(-c3cccc(CC(C)(C)C(=O)O)n3)nc2C(=O)N2CCC(F)(F)CC2)c(C(F)F)c1F)C(F)(F)F [Example 19, (S)-3-(6-(5-(2-(Difluoromethyl)-3-fluoro-4-(N-(1,1,1-trifluorobutan-2-yl)sulfamoyl)phenyl)-4-(4,4-difluoropiperidine-1-carbonyl)thiazol-2-yl)pyridin-2-yl)-2,2-dimethylpropanoic acid] |
| 40 |  |  | 3.1 |  |  |  | 109 | C[C@H](NS(=O)(=O)c1ccc(-c2sc(-c3nnc(C(C)(C)O)n3C3CC3)nc2C(=O)N2CCC(F)(F)CC2)c(Cl)c1Cl)C(F)(F)F [Example 23, (S)-2,3-Dichloro-4-(2-(4-cyclopropyl-5-(2-hydroxypropan-2-yl)-4H-1,2,4-triazol-3-yl)-4-(4,4-difluoropiperidine-1-carbonyl)thiazol-5-yl)-N-(1,1,1-trifluoropropan-2-yl)benzenesulfonamide] |
|  |  | 9 | 0.38 | 30 |  | 107 |  | Cc1c(S(=O)(=O)N[C@@H](C)C(F)(F)F)ccc(-c2sc(-c3nnc(C(C)(C)O)o3)nc2C(=O)N2CCC(F)(F)CC2)c1Cl [Example 27, 3-Chloro-4-(4-(4,4-difluoropiperidine-1-carbonyl)-2-(5-(2-hydroxypropan-2-yl)-1,3,4-oxadiazol-2-yl)thiazol-5-yl)-2-methyl-N—((S)-1,1,1-trifluoropropan-2-yl)benzenesulfonamide] |
